Structures can show the parent of a compound that is named as a salt.
What was measured:
[1] = Solubility in water; details: for solubility (in words): comparison with tyrosine, refers to table 1; for solubility at 20° C. / solubility at 25° C. / solubility at 30° C.: in water
[2] = test system: cells; experiment: Batch experiment in chemically defined medium where Cysteine was replaced by S-sulfocysteine sodium salt; format: cell-based; details: 1.5 and 3 mM, equivalent concentration to Cysteine
Protocol: Batch experiment in chemically defined medium where Cysteine was replaced by S-sulfocysteine sodium salt (equivalent concentration). The CDM powder used as basis was depleted in Cysteine and Cystine and supplemented during reconstitution with Cysteine for the control conditions (1.5 and 3 mM) or with S-sulfocysteine sodium salt for the test conditions (1.5 and 3 mM).

[3] = test system: Recombinant CHO cells; experiment: Fed batch process with feed containing S-sulfocysteine and PTyr 2Na+ at pH 7.0, 1.2 L bioreactors; format: cell-based; details: main feed pH 7.0, in combination with PTyr 2Na+; control tyrosine 2Na+ and Cysteine at pH 11
Protocol: FIGS. 7 and 8 show the viable cell density and IgG concentration over time in a fed batch process. Recombinant CHO cells are grown in fully chemically defined basal media and a feed containing both S-sulfocysteine and PTyr 2Na+ at pH 7.0. Feed is added on day 3; 5, 7, 9 and 14 (addition of % v/v of 3%; 6% 6% 6%, 3%). The process is performed in 1.2 L bioreactors at 37° C., pH 7.0, 50% dissolved oxygen, agitation 140 rpm. For control, according to the state of the art, tyrosine 2Na+ and Cysteine are solubilized at pH 11 in a separate feed and added at day 3; 5; 7; 9, 14 in %(V/V) of 0.3%, 0.6%, 0.6%, 0.6%, 0.3%. The glucose concentration is measured every day and adjusted accordingly to maintain a concentration>2 g/L

[4] = test system: Recombinant CHO cells; experiment: Fed batch process with neutral pH feed containing phospho-Tyr salts, 30 mL spin tubes; format: cell-based; details: 30 mM in feed at pH 7.0; control tyrosine 2Na+ and Cysteine in separate feed at pH 11
Protocol: FIGS. 5 and 6 show the viable cell density and IgG concentration over time in a fed batch process. Recombinant CHO cells are grown in fully chemically defined basal media and a feed containing phospho-Tyr salts at pH 7.0 is added on day 3; 5, 7 and 9 (addition of % v/v of 3%; 6% 6% 6%). […]. In these cases, Cysteine is still added as a separate feed at pH 11.
The process is performed in 30 mL spin tubes at 37° C., 5% CO2, agitation 320 rpm. For control, according to the state of the art, tyrosine 2Na+ and Cysteine are solubilized at pH 11 in a separate feed and added at day 3; 5; 7; 9 in %(V/V) of 0.3%, 0.6%, 0.6% and 0.6%.
The glucose concentration is measured every day and adjusted accordingly to maintain a concentration>2 g/L

[5] = test system: cells; experiment: Batch experiment in chemically defined medium where tyrosine was replaced by PTyr salts; format: cell-based
Excerpt: Batch experiment in chemically defined medium where tyrosine was replaced by PTyr salts. PTyr means (S)-2-Amino-3-(4-phosphonooxy-phenyl)-propionic-acid salt.

| Molecule | solubility (in words) [1] | solubility at 20° C. [1] | solubility at 25° C. [1] | solubility at 30° C. [1] | impact on growth (viable cell density) [4] | impact on titer (IgG concentration) [4] | other results |
| --- | --- | --- | --- | --- | --- | --- | --- |
| N[C@@H](Cc1ccc(OP(=O)([O-])O)cc1)C(=O)O.[Na+] [D3] | higher solubility | 5.5% | 5.3% | 11.4% |  |  |  |
| N[C@H](CSS(=O)(=O)[O-])C(=O)[O-].[Na+].[Na+] [S-sulfocysteine sodium salt, (S)-2-amino-3-sulfosulfanylpropanoic acid sodium salt] |  |  |  |  |  |  | cell growth versus Cysteine control [2]: comparable growth; growth (viable cell density) in comparison to the control [3]: extended growth; titer (IgG concentration) in comparison to the control [3]: significant increase |
| N[C@@H](Cc1ccc(OP(=O)([O-])[O-])cc1)C(=O)O.[Na+].[Na+] [D4] | very good solubility | 9.8% | 10.1% | 9.2% | no negative impact | no negative impact |  |
| N[C@@H](Cc1ccc(OP(=O)(O)O)cc1)C(=O)O [PTyr Magnesium salt, (S)-2-Amino-3-(4-phosphonooxy-phenyl)-propionic-acid 2:1-magnesium salt] |  |  |  |  | no negative impact | no negative impact |  |
| N[C@@H](Cc1ccc(OP(=O)([O-])O)cc1)C(=O)O.[K+] [PTyr Potassium salt, (S)-2-Amino-3-(4-phosphonooxy-phenyl)-propionic-acid mono potassium salt] |  |  |  |  | no negative impact | no negative impact |  |
| (S)-2-Amino-3-(4-phosphonooxy-phenyl)-propionic-acid salt [PTyr] |  |  |  |  |  |  | maximum viable cell density versus control ([5]; PTyr 4.5 mM in the CDM versus 1 mM tyrosine in the control): even higher; extended growth ([5]; PTyr 4.5 mM in the CDM versus control): 2 days; cell growth ([5]; PTyr at the same concentration as Tyrosine in the medium (1 mM in the control)): cells didn't grow |

Source: patent US10030225B2, “Cell culture media” (Merck Patent GmbH, priority 2012, dated 2018)
